Patent publication US20240327430A1 (Breakpoint Therapeutics GmbH, priority 2023, published 2024)

Molecular target: truncated Polθ protein (Polθ-Hel containing the helicase domain (67-894)) (Homo sapiens (Human), UniProt O75417)
Assay: Polθ ATPase assay (Biological Assay 1, ADP-Glo luminescence)
Assay type: biochemical
Conditions: Table B; compounds of Experimental Part B, in vitro; read-out: Polθ ATPase assay IC50
Summary of the method: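 Polθ-Hel (0.5 nM) with 500 nM ssDNA oligo in pH 8.8 Tris buffer (5 mM MgCl2, 1 mM DTT) was preincubated with compound 30 min at 23 °C. The reaction ran 60 min after 60 μM ATP was added (stated as the added solution, not final). ADP formed was detected by ADP-Glo luminescence to derive IC50.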

Sequence of truncated Polθ protein (Polθ-Hel containing the helicase domain (67-894)) (O75417 67-894): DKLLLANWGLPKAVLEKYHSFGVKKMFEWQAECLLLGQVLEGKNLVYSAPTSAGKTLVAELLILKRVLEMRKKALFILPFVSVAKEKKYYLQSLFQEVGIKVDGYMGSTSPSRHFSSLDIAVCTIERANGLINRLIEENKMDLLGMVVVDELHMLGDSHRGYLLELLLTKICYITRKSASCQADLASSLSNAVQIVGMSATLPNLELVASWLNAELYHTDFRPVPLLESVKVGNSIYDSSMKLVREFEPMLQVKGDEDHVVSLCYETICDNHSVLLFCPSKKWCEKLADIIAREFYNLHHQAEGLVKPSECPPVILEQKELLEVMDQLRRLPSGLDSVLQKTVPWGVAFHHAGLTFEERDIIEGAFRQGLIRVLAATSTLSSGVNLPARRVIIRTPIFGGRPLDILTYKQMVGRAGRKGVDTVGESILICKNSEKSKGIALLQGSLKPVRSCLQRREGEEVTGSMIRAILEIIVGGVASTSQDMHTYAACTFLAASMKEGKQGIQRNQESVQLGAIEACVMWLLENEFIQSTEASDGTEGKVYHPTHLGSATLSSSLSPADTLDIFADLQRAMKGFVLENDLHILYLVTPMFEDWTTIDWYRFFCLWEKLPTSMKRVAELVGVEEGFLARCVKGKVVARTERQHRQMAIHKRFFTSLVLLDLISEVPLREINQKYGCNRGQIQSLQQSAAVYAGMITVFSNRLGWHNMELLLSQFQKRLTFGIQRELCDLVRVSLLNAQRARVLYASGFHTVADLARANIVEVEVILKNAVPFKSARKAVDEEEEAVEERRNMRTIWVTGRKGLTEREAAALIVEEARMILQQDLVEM

## COc1cnc(Cl)cc1-c1cc(C)ncc1C(=O)Nc1nc2cc(OCC3CS(=O)(=O)C3)ccc2s1 [Example 113, 2′-chloro-N-{5-[(1,1-dioxo-1-λ6-thietan-3-yl)methoxy]-1,3-benzothiazol-2-yl}-5′-methoxy-6-methyl-[4,4′-bipyridine]-3-carboxamide]
  IC50: 100 to 1000 nM

## CCOc1ccc2sc(NC(=O)c3cnc(C)cc3-c3cc(Cl)ncc3OC)nc2c1 [Example 114, 2′-chloro-N-(5-ethoxy-1,3-benzothiazol-2-yl)-5′-methoxy-6-methyl-[4,4′-bipyridine]-3-carboxamide]
  IC50: 100 to 1000 nM

## COc1cnc(Cl)cc1-c1cc(C)ncc1C(=O)Nc1nc2cc(OCCOC(F)(F)F)ccc2s1 [Example 115, 2′-chloro-5′-methoxy-6-methyl-N-{5-[2-(trifluoromethoxy)ethoxy]-1,3-benzothiazol-2-yl}-[4,4′-bipyridine]-3-carboxamide]
  IC50: 100 to 1000 nM

## COc1cnc(C(F)(F)F)cc1-c1cc(CC(=O)N(C)C)ncc1C(=O)Nc1nc2cncnc2s1 [Example 116, 6-[(dimethylcarbamoyl)methyl]-5′-methoxy-N-{[1,3]thiazolo[5,4d]pyrimidin-2-yl}-2′-(trifluoromethyl)-[4,4′-bipyridine]-3-carboxamide]
  IC50: < 100 nM

## COc1cnc(C)cc1-c1cc(C)ncc1C(=O)Nc1nc2cnc(N3CCC(O)CC3)nc2s1 [Example 117, N-[5-(4-hydroxypiperidin-1-yl)-[1,3]thiazolo[5,4-d]pyrimidin-2-yl]-5′-methoxy-2′,6-dimethyl-[4,4′-bipyridine]-3-carboxamide]
  IC50: < 100 nM

## COc1cnc(Cl)cc1-c1cc(C)ncc1C(=O)Nc1nc2cnc(NCCCCC(=O)O)cc2s1 [Example 119, 5-[(2-{2′-chloro-5′-methoxy-6-methyl-[4,4′-bipyridine]-3-amido}-[1,3]thiazolo[4,5-c]pyridin-6-yl)amino]pentanoic acid]
  IC50: < 100 nM

## COc1cnc(Cl)cc1-c1cc(C)ncc1C(=O)Nc1nc2ccc(NCCCCC(=O)O)nc2s1 [Example 120, 5-[(2-{2′-chloro-5′-methoxy-6-methyl-[4,4′-bipyridine]-3-amido}-[1,3]thiazolo[5,4-b]pyridin-5-yl)amino]pentanoic acid]
  IC50: < 100 nM

## COc1cnc(Cl)cc1-c1cc(C)ncc1C(=O)Nc1nc2cc(OCc3nn[nH]n3)ccc2s1 [Example 121, 2′-chloro-5′-methoxy-6-methyl-N-{5-[(2H-1,2,3,4-tetrazol-5-yl)methoxy]-1,3-benzothiazol-2-yl}-[4,4′-bipyridine]-3-carboxamide]
  IC50: < 100 nM

## COc1cnc(Cl)cc1-c1cc(C)ncc1C(=O)Nc1nc2cc(O)ccc2s1 [Example 122, 2′-chloro-N-(5-hydroxy-1,3-benzothiazol-2-yl)-5′-methoxy-6-methyl-[4,4′-bipyridine]-3-carboxamide]
  IC50: < 100 nM

## COc1cnc(Cl)cc1-c1cc(C)ncc1C(=O)Nc1nc2cc(OCCOC(C)=O)ccc2s1 [Example 123, 2-[(2-{2′-chloro-5'-methoxy-6-methyl-[4,4′-bipyridine]-3-amido}-1,3-benzothiazol-5-yl)oxy]ethyl acetate]
  IC50: < 100 nM

## COc1cnc(Cl)cc1-c1cc(C)ncc1C(=O)Nc1nc2cc(OCCO)ccc2s1 [Example 124, 2′-chloro-N-[5-(2-hydroxyethoxy)-1,3-benzothiazol-2-yl]-5′-methoxy-6-methyl-[4,4′-bipyridine]-3-carboxamide]
  IC50: < 100 nM

## COc1cnc(Cl)cc1-c1cc(C)ncc1C(=O)Nc1nc2c(OCC#N)ncnc2s1 [Example 126, 2′-chloro-N-[7-(cyanomethoxy)-[1,3]thiazolo[5,4-d]pyrimidin-2-yl]-5′-methoxy-6-methyl-[4,4′-bipyridine]-3-carboxamide]
  IC50: < 100 nM

## COc1cnc(Cl)cc1-c1cc(C)ncc1C(=O)Nc1nc2c(OCC(N)=O)ncnc2s1 [Example 127, N-[7-(carbamoylmethoxy)-[1,3]thiazolo[5,4-d]pyrimidin-2-yl]-2′-chloro-5′-methoxy-6-methyl-[4.4′-bipyridine]-3-carboxamide]
  IC50: < 100 nM

## COc1cnc(Cl)cc1-c1cc(C)ncc1C(=O)Nc1nc2ccc(C3COCCN3)cc2s1 (stereo not drawn) [Example 128, 2′-chloro-5′-methoxy-6-methyl-N-[6-(morpholin-3-yl)-1,3-benzothiazol-2-yl]-[4,4′-bipyridine]-3-carboxamide]
  IC50: < 100 nM

## COc1cnc(Cl)cc1-c1cc(C)ncc1C(=O)Nc1nc2cnc(NCC(C)(C)O)cc2s1 [Example 130, 2′-chloro-N-{6-[(2-hydroxy-2-methylpropyl)amino]-[1,3]thiazolo[4,5-c]pyridin-2-yl}-5′-methoxy-6-methyl-[4,4′-bipyridine]-3 carboxamide]
  IC50: < 100 nM

## COc1cnc(Cl)cc1-c1cc(C)ncc1C(=O)Nc1nc2cnc(N3CC(C)(OC)C3)cc2s1 [Example 131, 2′-chloro-5′-methoxy-N-[6-(3-methoxy-3-methylazetidin-1-yl)-[1,3]thiazolo[4,5-c]pyridin-2-yl]-6-methyl-[4,4′-bipyridine]-3-carboxamide]
  IC50: < 100 nM

## COc1cnc(Cl)cc1-c1cc(C)ncc1C(=O)Nc1nc2c(C)nc(N3CCC(O)CC3)nc2s1 [Example 132, 2′-chloro-N-[5-(4-hydroxypiperidin-1-yl)-7-methyl-[1,3]thiazolo[5,4-d]pyrimidin-2-yl]-5′-methoxy-6-methyl-[4,4′-bipyridine]-3-carboxamide]
  IC50: < 100 nM

## COc1cnc(Cl)cc1-c1cc(C)ncc1C(=O)Nc1nc2cnc(OCC(C)(C)O)nc2s1 [Example 133, 2′-chloro-N-[5-(2-hydroxy-2-methylpropoxy)-[1,3]thiazolo[5,4-d]pyrimidin-2-yl]-5′-methoxy-6-methyl-[4,4′-bipyridine]-3-carboxamide]
  IC50: < 100 nM
